One test concerns the target T1, mALDH1a3 (Mus musculus, UniProt Q9JHW9).
T1 construct: made in house; host or cells: E. coli BL21-DE3, pET-Aldh1a3
T1 sequence (Q9JHW9 1-512): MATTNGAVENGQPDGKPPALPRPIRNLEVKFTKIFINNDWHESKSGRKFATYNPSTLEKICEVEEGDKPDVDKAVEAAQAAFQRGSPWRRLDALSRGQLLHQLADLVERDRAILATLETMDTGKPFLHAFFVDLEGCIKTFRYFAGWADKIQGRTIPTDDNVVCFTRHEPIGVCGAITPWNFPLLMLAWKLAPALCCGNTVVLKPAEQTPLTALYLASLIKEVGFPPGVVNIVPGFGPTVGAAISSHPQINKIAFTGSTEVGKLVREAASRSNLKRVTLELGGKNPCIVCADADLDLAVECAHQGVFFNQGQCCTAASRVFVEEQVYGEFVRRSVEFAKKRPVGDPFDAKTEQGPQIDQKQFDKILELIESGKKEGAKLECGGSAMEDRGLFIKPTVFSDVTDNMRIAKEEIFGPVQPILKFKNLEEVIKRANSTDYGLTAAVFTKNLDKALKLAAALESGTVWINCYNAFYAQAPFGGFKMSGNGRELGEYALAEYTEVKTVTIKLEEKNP
The test can be described thus: Aldh1a3 enzyme inhibition assay, recombinant mALDH1a3. The format is biochemical. The following applies: resorufin fluorescence, 20° C. From the text: (§1) Recombinant enzyme and inhibitor added immediately before assay. Reaction rate measured by resorufin fluorescence.

For the next test, the target named is T2, ALDH1a3 (Homo sapiens, UniProt P47895).
T2 sequence (P47895 1-512): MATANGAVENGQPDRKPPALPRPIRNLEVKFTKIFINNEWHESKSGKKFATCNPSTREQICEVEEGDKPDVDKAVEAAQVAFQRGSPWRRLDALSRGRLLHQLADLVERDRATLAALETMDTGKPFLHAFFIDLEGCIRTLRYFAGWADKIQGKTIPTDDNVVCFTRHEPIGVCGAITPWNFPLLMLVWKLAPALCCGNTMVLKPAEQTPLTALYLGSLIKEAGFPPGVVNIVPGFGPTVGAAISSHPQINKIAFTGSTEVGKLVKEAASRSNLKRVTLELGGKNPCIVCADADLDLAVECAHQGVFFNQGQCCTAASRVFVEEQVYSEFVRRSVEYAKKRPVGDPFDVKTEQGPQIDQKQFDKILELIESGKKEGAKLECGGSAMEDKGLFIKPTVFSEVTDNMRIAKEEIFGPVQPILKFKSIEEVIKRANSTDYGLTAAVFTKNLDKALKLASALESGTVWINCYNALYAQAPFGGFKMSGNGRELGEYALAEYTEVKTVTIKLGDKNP
The test can be described thus: Aldh1a3 enzyme inhibition assay, recombinant hALDH1a3. The class given is biochemical. On the set-up: made in house; host or cells: E. coli BL21-DE3, pET-Aldh1a3. The following applies: resorufin fluorescence, 20° C.
From the text: as §1

This is an account of results in patent US20230128402A1 (The Trustees of Princeton University, priority 2020, published 2023).

In general, IC50 refers to the concentration that inhibits the measured activity by half.

With `CCc1cnc(C)cc1C(=O)Nc1cc2c(cc1F)NC(=O)CC2` [Compound 8], the IC50 is 0.1 to 0.25 µM at mALDH1a3 and under 0.1 µM at ALDH1a3.

`Cc1ccc2ccc(Nc3ccc4c(c3)CCC(=O)N4)nc2c1` [Compound 91, 6-[(7-methyl-2-quinolyl)amino]-3,4-dihydro-1H-quinolin-2-one]: the IC50 on mALDH1a3 is 1 to 5 µM; at ALDH1a3, over 5 µM.

On to `COC(=O)c1ccc2ncc(Nc3ccc4c(c3)CC(C)(C)C(=O)N4)nc2c1` [Compound 120, methyl 3-[(3,3-dimethyl-2-oxo-1,4-dihydroquinolin-6-yl)amino]quinoxaline-6-carboxylate], for which the IC50 at mALDH1a3 and at ALDH1a3 was over 5 µM in each case.

For the compound `CCc1cnccc1C(=O)NCc1ccc2c(c1)CCC(=O)N2` [Compound 28, 3-ethyl-N-[(2-oxo-3,4-dihydro-1H-quinolin-6-yl)methyl]pyridine-4-carboxamide], the IC50 on mALDH1a3 and at ALDH1a3 was over 5 µM throughout.

On to `CC(C)=Cc1cnc(C)cc1C(=O)Nc1ccc2c(c1)CC(C)(C)C(=O)N2` [Compound 69], for which the IC50 at mALDH1a3 and at ALDH1a3 was over 5 µM throughout.

As to `Cc1cc(C(=O)Nc2ccc3c(c2)CCC(=O)N3)ccn1` [Compound 24], the IC50 on mALDH1a3 and on ALDH1a3 was over 5 µM each time.

As to `CCc1cnccc1C(=O)Nc1cc2c(cc1F)NC(=O)CC2(C)C` [Compound 40], the IC50 lay within 0.25 to 1 µM at mALDH1a3 and 1 to 5 µM on ALDH1a3.

With `CCCc1cnccc1C(=O)Nc1ccc2c(c1)CCC(=O)N2` [Compound 60, N-(2-oxo-3,4-dihydro-1H-quinolin-6-yl)-3-propyl-pyridine-4-carboxamide], the IC50 was in the range of 0.25 to 1 µM at mALDH1a3 and 0.1 to 0.25 µM on ALDH1a3.

Consider `CCc1cnccc1C(=O)Nc1ccc2c(c1)CC1(CC1)C(=O)N2` [Compound 61, 3-ethyl-N-(2-oxospiro[1,4-dihydroquinoline-3,1′-cyclopropane]-6-yl)pyridine-4-carboxamide], for which the IC50 at mALDH1a3 was in the range of 1 to 5 µM; at ALDH1a3, 0.1 to 0.25 µM.

For `CC1(C)Cc2cc(Nc3nc(=O)c4ccccc4[nH]3)ccc2NC1=O` [Compound 116, 2-[(3,3-dimethyl-2-oxo-1,4-dihydroquinolin-6-yl)amino]-1H-quinazolin-4-one], the IC50 on mALDH1a3 is 1 to 5 µM; on ALDH1a3 it was 0.25 to 1 µM.

With `O=C1CCc2cc(Oc3ncc4ccccc4n3)ccc2N1` [Compound 119, 6-quinazolin-2-yloxy-3,4-dihydro-1H-quinolin-2-one], the IC50 at mALDH1a3 and at ALDH1a3 was over 5 µM throughout.

Regarding `CCc1cnccc1C(=O)Nc1cc2ccc(=O)[nH]c2cc1F` [Compound 39, 3-ethyl-N-(7-fluoro-2-oxo-1H-quinolin-6-yl) pyridine-4-carboxamide], the IC50 on mALDH1a3 lay in the range of 1 to 5 µM; on ALDH1a3 it was 0.25 to 1 µM.

With `CC1(C)Cc2cc(Nc3ncc4ccccc4n3)ccc2NC1=O` [Compound 93, 3,3-dimethyl-6-(quinazolin-2-ylamino)-1,4-dihydroquinolin-2-one], the IC50 on mALDH1a3 and on ALDH1a3 was 0.25 to 1 µM throughout.

On to `CC1(C)Cc2cc(Nc3ccc4cnccc4n3)ccc2NC1=O` [Compound 95, 3,3-dimethyl-6-(1,6-naphthyridin-2-ylamino)-1,4-dihydroquinolin-2-one], for which the IC50 at mALDH1a3 and on ALDH1a3 was over 5 µM in each case.

As for `N#Cc1ccc2nc(Nc3ccc4c(c3)CCC(=O)N4)ccc2c1` [Compound 88, 2-[(2-oxo-3,4-dihydro-1H-quinolin-6-yl)amino]quinoline-6-carbonitrile], the IC50 at mALDH1a3 and at ALDH1a3 was over 5 µM throughout.

`CC(C)c1cnccc1C(=O)Nc1cc2c(cc1F)NC(=O)CC2` [Compound 6]: the IC50 on mALDH1a3 and at ALDH1a3 was 1 to 5 µM in each case.

For `CCc1c[n+]([O-])ccc1C(=O)Nc1ccc2c(c1)CCC(=O)N2` [Compound 73, 3-ethyl-1-oxido-N-(2-oxo-3,4-dihydro-1H-quinolin-6-yl)pyridin-1-ium-4-carboxamide], the IC50 at mALDH1a3 is over 5 µM; at ALDH1a3 it was 1 to 5 µM.

Regarding `CCc1cnccc1CC(=O)Nc1ccc2c(c1)CCC(=O)N2` [Compound 31, 2-(3-ethyl-4-pyridyl)-N-(2-oxo-3,4-dihydro-1H-quinolin-6-yl) acetamide], the IC50 on mALDH1a3 and at ALDH1a3 was over 5 µM throughout.

In the case of `CC1(C)Cc2cc(Nc3ccc4ccccc4n3)ccc2NC1=O` [Compound 46, 3,3-dimethyl-6-(2-quinolylamino)-1,4-dihydroquinolin-2-one], the IC50 on mALDH1a3 and on ALDH1a3 was 1 to 5 µM throughout.

Consider `Cc1cccc2nc(Nc3ccc4c(c3)CCC(=O)N4)ccc12` [Compound 87, 6-[(5-methyl-2-quinolyl)amino]-3,4-dihydro-1H-quinolin-2-one], for which the IC50 at mALDH1a3 is under 0.1 µM; on ALDH1a3 it was 0.25 to 1 µM.

`Cc1cnccc1/C=C/c1ccc2c(c1)CCC(=O)N2` [Compound 30, 6-[(E)-2-(3-methyl-4-pyridyl)vinyl]-3,4-dihydro-1H-quinolin-2-one]: the IC50 at mALDH1a3 is 1 to 5 µM; at ALDH1a3, over 5 µM.

Take `O=C1CCc2cc(Nc3ccc4ccccc4n3)ccc2N1` [Compound 35, 6-(2-quinolylamino)-3,4-dihydro-1H-quinolin-2-one]: the results for the IC50 at mALDH1a3 and on ALDH1a3 were under 0.1 µM and 0.25 to 1 µM, respectively.

Turning to `O=C1CCc2cc(Nc3cnc4ccccc4n3)ncc2N1` [Compound 126, 6-(quinoxalin-2-ylamino)-3,4-dihydro-1H-1,7-naphthyridin-2-one], the IC50 on mALDH1a3 is under 0.1 µM; at ALDH1a3, 0.25 to 1 µM.

As for `CC1(C)Cc2cc(NN3CCC(c4ccccc4)C3=O)ccc2NC1=O` (stereo not shown) [Compound 106], the IC50 at mALDH1a3 and at ALDH1a3 was over 5 µM in each case.

Regarding `CC1(C)Cc2cc(Nc3ccc(Cl)cn3)ccc2NC1=O` [Compound 123, 6-[(5-chloro-2-pyridyl)amino]-3,3-dimethyl-1,4-dihydroquinolin-2-one], the IC50 on mALDH1a3 and on ALDH1a3 was over 5 µM throughout.

With `CCc1cnccc1C(=O)Nc1ccc2c(c1)C(C)(C)C(=O)N2` [Compound 137], the IC50 on mALDH1a3 and at ALDH1a3 was over 5 µM in each case.

For `CCc1cnccc1C(=O)Nc1cc2c(cc1F)NC(=O)C(C)(C)C2` [Compound 38], the IC50 on mALDH1a3 is 1 to 5 µM; at ALDH1a3 it was 0.25 to 1 µM.

For `Cc1cnccc1C(=O)Nc1ccc2c(c1)CCC(=O)N2` [Compound 21], the IC50 at mALDH1a3 and on ALDH1a3 was over 5 µM in each case.

Turning to `CCc1cc(=O)n(C)cc1C(=O)Nc1ccc2c(c1)CCC(=O)N2` [Compound 76, 4-ethyl-1-methyl-6-oxo-N-(2-oxo-3,4-dihydro-1H-quinolin-6-yl)pyridine-3-carboxamide], the IC50 on mALDH1a3 and at ALDH1a3 was over 5 µM each time.

Regarding `CC1(C)Cc2cc(Nc3c[nH]c4c(c3=O)CCCC4)ccc2NC1=O` [Compound 135, 3,3-dimethyl-6-[(4-oxo-5,6,7,8-tetrahydro-1H-quinolin-3-yl)amino]-1,4-dihydroquinolin-2-one], the IC50 at mALDH1a3 and at ALDH1a3 was over 5 µM in each case.

In the case of `CC1(C)Cc2cc(Nc3cnc4ccccc4n3)c(F)cc2NC1=O` [Compound 109, 7-fluoro-3,3-dimethyl-6-(quinoxalin-2-ylamino)-1,4-dihydroquinolin-2-one], the IC50 on mALDH1a3 was under 0.1 µM; on ALDH1a3 it was 0.1 to 0.25 µM.

`CC1(C)Cc2cc(Nc3ccc4c(n3)CCCC4=O)ccc2NC1=O` [Compound 127, 3,3-dimethyl-6-[(5-oxo-7,8-dihydro-6H-quinolin-2-yl)amino]-1,4-dihydroquinolin-2-one]: the IC50 at mALDH1a3 is over 5 µM; on ALDH1a3, 1 to 5 µM.

For the compound `CCc1cnccc1C(=O)Nc1ccc2c(c1)C(F)(F)C(=O)N2` [Compound 136], the results for the IC50 on mALDH1a3 and on ALDH1a3 were over 5 µM and 1 to 5 µM, respectively.

`CCc1cnccc1NC(=O)c1ccc2c(c1)CCC(=O)N2` [Compound 26, N-(3-ethyl-4-pyridyl)-2-oxo-3,4-dihydro-1H-quinoline-6-carboxamide]: the IC50 on mALDH1a3 and on ALDH1a3 was over 5 µM in each case.

In the case of `CCc1cnccc1C(=O)Nc1ccc2c(c1)CCC(=O)N2C` [Compound 23, 3-ethyl-N-(1-methyl-2-oxo-3,4-dihydroquinolin-6-yl)pyridine-4-carboxamide], the values for the IC50 on mALDH1a3 and at ALDH1a3 were 1 to 5 µM and over 5 µM, respectively.
